Assay results published in US20110065675A1, “AZO DYE RELATED SMALL MOLECULE MODULATORS OF PROTEIN-PROTEIN INTERACTIONS” (University of Miami, priority 2008, published 2011).
Read-outs that look alike come from different tables or passages of the source.

Experiments:
human CD40/CD154 = molecular target: T1, human CD40/CD154 (Homo sapiens, UniProt P29965); test: Human CD40/CD154 binding inhibition assay (cell-free, plate-based)
T1 construct: CD154 (soluble human, FLAG-tagged, recombinant from Alexis Biochemicals; MW=18 kDa); purchased Alexis Biochemicals
T1 sequence (P29965 113-261 limits assumed): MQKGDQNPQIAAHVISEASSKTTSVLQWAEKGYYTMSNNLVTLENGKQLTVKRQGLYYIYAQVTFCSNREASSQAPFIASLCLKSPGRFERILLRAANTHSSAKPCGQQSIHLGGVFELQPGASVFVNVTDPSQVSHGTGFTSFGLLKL
Protocol: A 96-well plate-based cell-free in vitro binding inhibition assay, which is a modification of an assay described in U.S. Pat. No. 7,173,046, incorporated by reference in its entirety, has been developed and used for activity screening. Briefly, CD40 is coated at a preselected concentration, and binding of (FLAG-tagged) CD154 is measured by reacting with secondary antibody and using TMB liquid substrate system as a substrate for horseradish peroxidase for reading at 450 nm. The detailed procedure is as follows: Microtiter plates (Nunc F MaxiSorp) were coated with […] of CD40: Fc (human:Fc human, recombinant from Alexis Biochemicals; MW=54 kDa) diluted in PBS pH 7.2 at a preselected concentration of 0.3125 μg/mL. Plates were covered with plate sealer and stored overnight at 4° C. The liquid was removed from the plates and blotted dry. Plates were blocked by washing once with approx. 300 μL/well of Blocking Solution (PBS pH 7.2, 0.05% Tween-20, 1% BSA) and incubated with the same solution for 1 hour at room temperature (RT) or at 4° C. overnight. Coated plates were washed three times with Washing Solution (PBS pH 7.4, 0.05% Tween-20) and blotted dry. A preselected dilution of CD154 (soluble human, FLAG-tagged, recombinant from Alexis Biochemicals; MW=18 kDa) of 0.0087500875 μg/mL range was prepared in 100 mM HEPES, 0.005% BSA pH 7.2. Binding was carried out by adding 100 μL of this CD154 dilution/well and incubating at RT in the presence of test compounds (or blank as negative control). After incubation, the plates were washed with Washing Solution and blotted dry. Bound CD154 was detected with 200 μL/well of secondary antibody mAb ANTI-FLAG M2—Peroxidase Conjugate (anti-FLAG M2-peroxidase HRP conjugate; Sigma-Aldrich) diluted 1:40,000 in Washing Solution. After incubation, the plates were washed and blotted dry. 200 μL/well of the HR-Peroxidase substrate TMB (3,3′,5,5′-tetramethylbenzidine; Sigma-Aldrich) were added, and the plates were incubated for approximately 30 minutes in the dark. The reaction was stopped with 0.5 M H2SO4 and read at 450 nm. All conditions were tested in at least three independent experiments in duplicate or triplicate per plates. Data were normalized and fitted with standard log inhibitor vs. response models using GraphPad Prism 5 to establish median inhibitory ICso values.
A representative result using the monoclonal anti-human CD154 antibody (R&D Systems, monoclonal anti-human CD40 ligand/TNFSF5 antibody, MAB617; MW≈150 kDa used) as positive control is shown in FIG. 1.
Binding inhibition assays with this system provided consistent and well-reproducible results, as FIG. 1 (bottom), focusing on the concentration range of their activities, illustrates. […] The effect of DMSO, which was used as the diluting solvent for the non-water-soluble compounds and is a standard solvent in HTS assays, on the integrity of the assay has been examined. DMSO concentrations above 10% interfere with the binding assay, but concentrations below 3% have no effect. […] Because 5 or 10 mM stock solutions were used, all IC50 values below 250 μM can be considered as unaffected by DMSO.

human TNF-R1/TNFα = human TNF-R1/TNFα (Homo sapiens, UniProt P01375+P19438); test: Specificity test: human TNF-R1/TNFα binding inhibition assay; details: for IC50: cell-free binding, read-out: Human TNFR1/TNFα IC50; for Human TNFR1/TNFα log IC50: log of IC50, cell-free binding
Chain of human TNF-R1/TNFα (P01375 77-233 limits assumed): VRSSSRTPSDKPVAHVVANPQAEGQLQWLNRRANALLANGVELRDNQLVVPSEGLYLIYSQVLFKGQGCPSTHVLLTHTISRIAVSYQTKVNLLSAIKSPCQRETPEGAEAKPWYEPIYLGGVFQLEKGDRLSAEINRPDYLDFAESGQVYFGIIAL
Chain of human TNF-R1/TNFα (P19438 30-211 limits assumed): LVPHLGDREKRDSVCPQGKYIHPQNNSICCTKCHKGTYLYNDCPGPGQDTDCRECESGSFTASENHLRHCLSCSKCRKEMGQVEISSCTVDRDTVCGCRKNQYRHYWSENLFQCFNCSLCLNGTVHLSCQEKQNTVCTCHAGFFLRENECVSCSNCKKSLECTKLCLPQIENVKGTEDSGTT
Text: A main concern for the therapeutic applicability of these compounds and of small molecule PPI inhibitors in general is related to their ability to achieve some acceptable degree of selectivity/specificity for the PPI of interest. To identify compounds that show acceptable specificity for the CD40/CD154 system, their ability to inhibit the TNF-R1/TNF-α PPI was investigated since this is particularly relevant as CD154 is part of the TNF superfamily. The experimental setup used was very similar to the one described in Example 1, but using plate-coated TNF-R1 and TNF-α as ligand (with a corresponding anti-TNF-α mAb as positive control). The concentration of TNF-R1 and TNF-α used were 0.6 μg/mL and 0.02 μg/mL, respectively.

[1] = molecular target: T2, mouse CD40/CD154 (mCD40:mCD154) (Mus musculus, UniProt P27548); test: Murine CD40/CD154 binding inhibition assay
T2 construct: (FLAG-tagged) mCD154 (recombinant mouse CD40L, soluble, Alexis Biochemicals); purchased R&D Systems (mCD40/Fc); Alexis Biochemicals (mCD154)
T2 sequence (P27548 112-260 limits assumed): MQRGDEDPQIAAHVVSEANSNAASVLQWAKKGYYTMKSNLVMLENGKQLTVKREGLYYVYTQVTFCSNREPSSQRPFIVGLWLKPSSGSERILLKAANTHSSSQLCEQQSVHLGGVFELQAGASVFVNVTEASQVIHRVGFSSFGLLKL
Protocol: Compounds of interest were also tested in a murine (mouse) model similar to the human one with murine CD40 and CD154 replacing the corresponding human proteins. This serves as additional confirmation of the in vitro inhibitory potential of these compounds, and it was considered important because mouse models are likely to be used as the first in vivo tests. […] The experimental setup used was similar to the one described above, but using mCD40 (recombinant mouse CD40/TNFRSF5/Fc Chimera, soluble, R&D Systems) and (FLAG-tagged) mCD154 (recombinant mouse CD40L, soluble, Alexis Biochemicals). This time, however, a higher concentration of CD154 ligand had to be employed to obtain adequate signals, and after a number of calibration tests, mCD40 coating at 0.3125 μg/mL with mCD154 (mCD40L) at 1.1212 μg/mL range was selected to be used to screen the inhibiting activity of various compounds.
The experiments confirmed that the murine anti-CD154 monoclonal antibody (Taconic, MR1) was active in this system at the expected concentration (˜1 nM range), the human antibody was not, and vice versa, the human mAb was active in the human system, but not in the mouse system. The mouse system provided a similar range of activity with some (up to approximately five-fold) changes in activities compared to that seen in the human system (FIG. 2) (Table 1).

[2] = cell-free binding, read-out: Human CD40/CD154 IC50
[3] = cell-free binding, read-out: Human CD40/CD154 IC50 (ug/mL) (converted)
[4] = log of IC50, cell-free binding, read-out: Human CD40/CD154 log IC50 (converted)

Row | Compound | Human CD40/CD154 IC50 (human CD40/CD154; cell-free binding) [µg/mL] | IC50 (human CD40/CD154; [2]) [µM] | Human CD40/CD154 log IC50 (human CD40/CD154; log of IC50, cell-free binding) | IC50 (human TNF-R1/TNFα) [µM] | Human TNFR1/TNFα log IC50 (human TNF-R1/TNFα) | IC50 ([1]; cell-free binding, read-out: Mouse CD40/CD154 IC50) [µM] | Mouse CD40/CD154 log IC50 ([1]; log of IC50, cell-free binding) | IC50 (human CD40/CD154; [3]) [µM] | IC50 (human CD40/CD154; [4]) [µM]
1 | Nc1c(N=Nc2cccc([N+](=O)[O-])c2)c(S(=O)(=O)[O-])cc2cc(S(=O)(=O)[O-])c(N=Nc3ccccc3)c(O)c12.[Na+].[Na+] [Acid blue 29, acid blue 29] | 18.6 | 30.2 | −4.52 | 467 | −3.33 | – | – | – | –
2 | O=S(=O)([O-])c1cccc(N=Nc2ccc(N=Nc3ccc(Nc4ccccc4)c4c(S(=O)(=O)[O-])cccc34)c3ccccc23)c1.[Na+].[Na+] [Acid blue 113, acid blue 113] | 0.8 | 1.1 | −5.95 | – | – | – | – | – | –
3 | Cc1ccc(S(=O)(=O)Oc2ccc(N=Nc3ccc(-c4ccc(N=Nc5c(O)ccc6cc(S(=O)(=O)[O-])cc(S(=O)(=O)[O-])c56)c(C)c4)cc3C)cc2)cc1.[Na+].[Na+] [Acid red 114, C.I. acid red 114] | 2.4 | 2.8 | −5.55 | 14.2 | −4.85 | – | – | – | –
4 | O=S(=O)([O-])c1cc(S(=O)(=O)[O-])c2c(N=Nc3ccc(N=Nc4ccccc4)cc3)c(O)ccc2c1.[Na+].[Na+] [Brilliant crocein (crocein scarlet MOO), Brilliant crocein, reference compound] | 92.8 | 141 | −3.85 | – | – | 282 | −3.55 | – | –
5 | Nc1ccc(N=Nc2ccc(-c3ccc(N=Nc4c(S(=O)(=O)[O-])cc5cc(S(=O)(=O)[O-])c(N=Nc6ccccc6)c(O)c5c4N)cc3)cc2)c(N)c1.[Na+].[Na+] [Chlorazol black (direct black 38), direct black 38] | 0.9 | 1.1 | −5.95 | – | – | – | – | – | –
6 | Nc1c(/N=N/c2ccc(-c3ccc(/N=N/c4cc(S(=O)(=O)O)c5ccccc5c4N)cc3)cc2)cc(S(=O)(=O)O)c2ccccc12 [Congo red] | – | 5.7 | – | 34.9 | – | – | – | 6.13 | –
7 | COc1cc(-c2ccc(N=Nc3c(S(=O)(=O)[O-])cc4cc(S(=O)(=O)[O-])cc(N)c4c3O)c(OC)c2)ccc1N=Nc1c(S(=O)(=O)[O-])cc2cc(S(=O)(=O)[O-])cc(N)c2c1O.[Na+].[Na+].[Na+].[Na+] [Direct blue 15, direct blue 15] | 1.4 | 1.4 | −5.86 | – | – | – | – | – | –
8 | Nc1ccc2c(O)c(N=Nc3ccc(N=Nc4ccc(N=Nc5cc(S(=O)(=O)[O-])c6cccc(S(=O)(=O)[O-])c6c5)c5ccccc45)c4ccc(S(=O)(=O)[O-])cc34)c(S(=O)(=O)[O-])cc2c1.[Na+].[Na+].[Na+].[Na+] [Direct blue 71, direct blue 71] | 2.2 | 2.1 | −5.68 | 98.5 | −4.01 | – | – | – | –
9 | CCOc1ccc(N=Nc2ccc(-c3ccc(N=Nc4c(O)ccc5cc(S(=O)(=O)[O-])cc(S(=O)(=O)[O-])c45)cc3)cc2)cc1.[Na+].[Na+] [Direct red 37, direct red 37] | 8.8 | 13 | −4.88 | – | – | – | – | – | –
10 | COc1ccccc1NC(=O)C(N=Nc1ccc(-c2nc3ccc(C)c(S(=O)(=O)[O-])c3s2)cc1S(=O)(=O)[O-])C(C)=O.[Na+].[Na+] (stereo not shown) [Direct yellow 27, direct yellow 27] | 1.3 | 1.9 | −5.72 | 42.4 | −4.37 | – | – | – | –
11 | Cc1cc(-c2ccc(/N=N/c3ccc4c(S(=O)(=O)O)cc(S(=O)(=O)O)c(N)c4c3O)c(C)c2)ccc1/N=N/c1ccc2c(S(=O)(=O)O)cc(S(=O)(=O)O)c(N)c2c1O [Evans blue] | – | – | – | – | – | – | – | 1.6 | 1.45
12 | Nc1cc(N)c(N=Nc2cccc3c(S(=O)(=O)O)cccc23)cc1N=Nc1cc([N+](=O)[O-])ccc1O.[Na] [Mordant brown 1, mordant brown 1] | 0.3 | 0.7 | −6.18 | 86 | −4.07 | – | – | – | –
13 | Cc1cc(-c2ccc(/N=N/c3c(S(=O)(=O)O)cc4cc(S(=O)(=O)O)cc(N)c4c3O)c(C)c2)ccc1/N=N/c1c(S(=O)(=O)O)cc2cc(S(=O)(=O)O)cc(N)c2c1O [Trypan blue, trypan blue] | – | – | – | – | – | – | – | 4.24 | 3.8
14 | acid red 188 | 7.0 | 12.8 | −4.89 | – | – | – | – | – | –
15 | direct blue 120 | 1.4 | 1.6 | −5.80 | – | – | – | – | – | –
16 | direct red 53 | 16.2 | 24.4 | −4.61 | – | – | – | – | – | –
